In patent US10471046B2, “Method for treating, preventing, or reducing the risk of skin infection” (Melinta Subsidiary Corp., priority 2014, dated 2019):
≈ marks a conversion by molar mass, not a printed value.

These compounds were tested on S. aureus (assay: Minimum inhibitory concentrations (MICs) for S. aureus of exemplary compounds (Table 2)). Details: Staphylococcus aureus, minimum inhibitory concentrations for S. aureus; read-out: MICs.
Format: cell-based
Source text: Exemplary compounds in accordance with the invention are listed in Table 2 with their minimum inhibitory concentrations (MICs) (μg/mL) for S. aureus:
Furthermore, the antibiotic compounds can be assayed for anti-proliferative or anti-infective properties on a cellular level. For example, where the target organism is a microorganism, the activity of compounds of interest can be assayed by growing the microorganisms of interest in media either containing or lacking the compound. Growth inhibition can be indicative that the molecule could be acting as a protein synthesis inhibitor. […] For this purpose, a panel of bacterial strains can be assembled to include a variety of target pathogenic species, some containing resistance mechanisms that have been characterized. Use of such a panel of organisms permits the determination of structure-activity relationships not only in regards to potency and spectrum, but also with a view to obviating resistance mechanisms. The assays can be performed in microtiter trays according to conventional methodologies as published by The National Committee for Clinical Laboratory Standards (NCCLS) guidelines (NCCLS. M7-A5-Methods for Dilution Antimicrobial Susceptibility Tests for Bacteria That Grow Aerobically; Approved Standard-Fifth Edition. NCCLS Document M100-S12/M7 (ISBN 1-56238-394-9)).

Row | SMILES | MIC [µg/mL]
1 | CC(=O)NC[C@H]1CN(c2ccc(-c3ccc(CNC(=O)c4cnc5ccccc5c4)cc3)c(F)c2)C(=O)O1 [Compound 4009, Quinoline-3-carboxylic acid {4′-[5-(S)-(acetylamino-methyl)-2-oxo-oxazolidin-3-yl]-2′-fluoro-biphenyl-4-ylmethyl}-amide] | 32 (≈ 62.4 µM)
2 | CC(=O)NC[C@H]1CN(c2ccc(-c3ccc(CSc4ccccn4)cc3)c(F)c2)C(=O)O1 [Compound 2018, N-{3-[2-Fluoro-4′-(pyridin-2-ylsulfanylmethyl)-biphenyl-4-yl]-2-oxo-oxazolidin-5-(S)-ylmethyl}-acetamide] | 0.25 (≈ 0.554 µM)
3 | CC(=O)NC[C@H]1CN(c2ccc(-c3ccc(Cn4nnnc4Cl)cc3)c(F)c2)C(=O)O1 [Compound 1083, N-{3-[4′-(5-Chloro-tetrazol-1-ylmethyl)-2-fluoro-biphenyl-4-yl]-2-oxo-oxazolidin-5-(S)-ylmethyl}-acetamide] | 0.5 (≈ 1.12 µM)
4 | CC(=O)NC[C@H]1CN(c2ccc(-c3ccc(CNC(=O)c4ccc5cc[nH]c5c4)cc3)c(F)c2)C(=O)O1 [Compound 4011, 1H-Indole-6-carboxylic acid {4′-[5-(S)-(acetylamino-methyl)-2-oxo-oxazolidin-3-yl]-2′-fluoro-biphenyl-4-ylmethyl}-amide] | 1 (≈ 2 µM)
5 | CC(=O)NC[C@H]1CN(c2ccc(-c3ccc(CNCc4ccccn4)cc3)c(F)c2)C(=O)O1 [Compound 4024, N-[3-(2-Fluoro-4′-{[(pyridin-2-ylmethyl)-amino]-methyl}-biphenyl-4-yl)-2-oxo-oxazolidin-5-(S)-ylmethyl]-acetamide] | 1 (≈ 2.23 µM)
6 | CC(=O)NC[C@H]1CN(c2ccc(-c3ccc(CNC(=O)/C=C/c4cccnc4)cc3)c(F)c2)C(=O)O1 [Compound 4002, N-{4′-[5-(S)-(Acetylamino-methyl)-2-oxo-oxazolidin-3-yl]-2′-fluoro-biphenyl-4-ylmethyl}-3-pyridin-3-yl-acrylamide] | 4 (≈ 8.19 µM)

More lines, now with the values ahead:

Row | MIC [µg/mL] | SMILES
7 | 2 (≈ 4.32 µM) | CC(=O)NC[C@H]1CN(c2ccc(-c3ccc(CNCc4cccc(C)n4)cc3)c(F)c2)C(=O)O1 [Compound 4072, N-[3-(2-Fluoro-4′-{[(6-methyl-pyridin-2-ylmethyl)-amino]-methyl}-biphenyl-4-yl)-2-oxo-oxazolidin-5-(S)-ylmethyl]-acetamide]
8 | 4 (≈ 8.82 µM) | CC(=O)NC[C@H]1CN(c2ccc(-c3ccc(CNCc4ccsc4)cc3)c(F)c2)C(=O)O1 [Compound 4086, N-[3-(2-Fluoro-4′-{[(thiophen-3-ylmethyl)-amino]-methyl}-biphenyl-4-yl)-2-oxo-oxazolidin-5-(S)-ylmethyl]-acetamide]
9 | 1 (≈ 1.94 µM) | CC(=O)NC[C@H]1CN(c2ccc(-c3ccc(CN(C)C(=O)c4ccc5cc[nH]c5c4)cc3)c(F)c2)C(=O)O1 [Compound 4050, 1H-Indole-6-carboxylic acid {4′-[5-(S)-(acetylamino-methyl)-2-oxo-oxazolidin-3-yl]-2′-fluoro-biphenyl-4-ylmethyl}-methyl-amide]
10 | 1 (≈ 2.21 µM) | CC(=O)NC[C@H]1CN(c2ccc(-c3ccc(CNCC4CCC=CO4)cc3)c(F)c2)C(=O)O1 (stereo partly drawn) [Compound 4131, N-[3-(4′-{[(3,4-Dihydro-2H-pyran-2-ylmethyl)-amino]-methyl}-2-fluoro-biphenyl-4-yl)-2-oxo-oxazolidin-5-(S)-ylmethyl]-acetamide]
11 | 0.5 (≈ 1.05 µM) | CC(=O)NC[C@H]1CN(c2ccc(-c3ccc(C(=O)NCCc4ccccn4)cc3)c(F)c2)C(=O)O1 [Compound 4115, 4′-[5-(S)-(Acetylamino-methyl)-2-oxo-oxazolidin-3-yl]-2′-fluoro-biphenyl-4-carboxylic acid (2-pyridin-2-yl-ethyl)-amide]
12 | 2 (≈ 4.07 µM) | CC(=O)NC[C@H]1CN(c2ccc(-c3ccc(NC(=O)NCCc4ccccn4)cc3)c(F)c2)C(=O)O1 [Compound 6003, N-(3-{2-Fluoro-4′-[3-(2-pyridin-2-yl-ethyl)-ureido]-biphenyl-4-yl}-2-oxo-oxazolidin-5-(S)-ylmethyl)-acetamide]
